The values that follow come from article PMC7900953, “Location of a single histidine within peptide carriers increases mRNA delivery” (The Journal of Gene Medicine, 2020).

The conditions of series [1]: cited from earlier work.
A further series concerns trypsin. As to the kind of experiment: Stability of HK polyplexes to enzymatic degradation. The following applies: trypsin (0.025%) 30 or 60 min; HK (0.5, 1, 4 µg):mRNA (1 µg); release of mRNA on 1% agarose gel. The class given is in vitro ADME. The procedure: After preparation of the H3K4b‐ or H3k(+H)4b‐mRNA polyplexes [w:w; HK (0.5, 1 or 4 μg):mRNA (1 μg)], these polyplexes were incubated with trypsin (0.025%) for 30 or 60 minutes. The HK polyplexes were then loaded on a 1% agarose gel and electrophoresis was carried out at 75 V for 30 minutes in TAE buffer. The gel was stained in a TAE buffer containing ethidium bromide (1 μg/ml) for 10 minutes.
[picture] Figure S3. Stability of HK polyplexes to enzymatic degradation. After preparation of the H3K4b or H3k(+H)4b mRNA polyplexes (wt:wt; HK (0.5, 1, 4 µg):mRNA (1 µg)), these polyplexes were incubated with trypsin (0.025%) for 30 or 60 min. The HK polyplexes were then loaded on a 1% agarose gel and electrophoresis was carried out at 75 V for 30 min in TAE buffer. The gel was stained in a TAE buffer containing ethidium bromide (1 µg/ml) for 10 min.

The test system of series [2] is MDA‐MB‐231 cells. The series can be described thus: Cell viability assay (trypan blue exclusion). The class given is cell-based. The following applies: polymer alone (4 µg), 5 h in Opti-MEM, then DMEM/10% FBS 19 h. The procedure: MDA‐MB‐231 cells were seeded at 5.0 × 10^4 per well in a 24‐tissue culture plate and incubated overnight in DMEM supplemented with 10% fetal bovine serum (FBS) serum. The media was then changed to Opti‐MEM and the cells were treated with either the polymer (4 μg) or the polyplex (4 μg of HK; 1 μg of mRNA) for 5 hours. After the media was changed to DMEM/10% FBS for 19 hours, the cell viability was measured using the trypan blue cell exclusion assay (Trypan Blue solution, 0.4%; Sigma‐Aldrich, St Louis, MO, USA). ^41
After the medium was changed to Opti-MEM, either the polymer (4 µg) or the polyplex (4 µg HK; 1 µg mRNA) was added to the cells for 5 h. The media was then changed to DMEM/10% FBS for 19 h and the cell viability was determined using the trypan cell exclusion assay.

The subject of series [3] is MDA‐MB‐231 cells. The series can be described thus: mRNA transfection with HK lipopolyplexes (HK peptide + DOTAP liposomes). The class given is cell-based. The following applies: HK 4 μg, mRNA 1 μg, DOTAP 1 μg; luciferase 24 h. The procedure: Transfection with HK lipopolyplexes was carried out in a manner similar to that described above, with a few exceptions. In brief, the HK peptide (4 μg) in Opti‐MEM was mixed initially with mRNA (1 μg) for 30 minutes. This was followed by adding the DOTAP cationic liposome (1,2‐dioleoyl‐3‐trimethyl ammonium‐propane; 1 μg; Roche, Basel, Switzerland) for an additional 30 minutes. The Opti‐MEM mixture (50 μl) was then added dropwise to the cells.
FIGURE 8 Comparison of mRNA transfection with DOTAP and several HK peptides. To form lipopolyplexes, the HK peptides (4 μg) in Opti‐MEM were initially mixed with mRNA (1 μg) for 30 minutes. DOTAP liposomes (1 μg) were then added, gently mixed and allowed to stand for an additional 30 min. Polyplexes were prepared as described previously. These complexes in Opti‐MEM (50 μl) were then added to the cells and, 24 hours later, the luciferase activity was measured. *p < 0.05; **p < 0.01; ***p < 0.001
Figure S4. Transfection of mRNA (1 µg) with HK peptides (4 µg) and/or DOTAP liposomes (1 µg). Cells were transfected with mRNA lipoplexes, polyplexes, or lipopolyplexes as described in the Material and Methods section, and twenty-four h later, the luciferase activity was measured. ***, P<0.001; ****, P<0.0001

The test system of series [4] is MDA‐MB‐231 cells. As to the kind of experiment: In vitro uptake of HK polyplexes by flow cytometry. The series is classed as cell-based. The following applies: HK:mRNA 4:1, 1, 2 and 4 hours, DMEM/10% FBS. The procedure: Intracellular uptake of polymer–mRNA complex in MDA‐MB‐231 was measured by flow cytometry. Twenty‐four hours before the treatment, cells were plated in a 24‐well plate. The polymer‐mRNA polyplex was formed in Opti‐MEM at a ratio of 4:1 at room temperature for 30 minutes. After the cell culture medium was replaced with DMEM/10% FBS, H3K(+H)4b‐ or H3K4b‐mRNA polyplexes (cyanine 5'‐labeled mRNA; Trilink Biotechnologies, Inc.) were added to the cells. At several time points (1, 2 and 4 hours), transfected cells were harvested, fixed with 4% formalin/1% glutaraldehyde, and resuspended in PBS buffer for analysis. The results from the fluorescently labeled MDA‐MB‐231 cells were then acquired using Cytoflex (Beckman Coulter) and analyzed using CytExpert, version 2.3.0.84 (Beckman Coulter) on the flow cytometer.
Figure S2. Uptake of cyanine 5-labeled mRNA uptake into MDA-MB-231 cells with different peptide carriers. The percentages of cells containing labeled mRNA 1, 2, 4 hours after transfection with H3K(+H)4b (upper panel) or with H3K4b (lower panel).
A general note: In flow cytometry, cells or beads pass a laser one at a time.

A short description of series [5]: Particle size, polydispersity index (PDI) and zeta potential of polyplexes (dynamic light scattering). The class given is physicochemical. To be noted: HK peptide (4 μg) + mRNA (1 μg), 25°C; for Zeta potential of polyplex / Size of polyplex: mean ± SD of three measurements; for Size of polyplex: DLS 90°, z‐average; for PDI of polyplex: DLS. The procedure:
The size, PDI and zeta potential were determined with the Zetasizer (Malvern, Westborough, MA, USA) and analyzed with Zetasizer, version 6.2 (Malvern). Using dynamic light scattering at a 90° angle, the size of the particles were reported as the z‐average diameter from the intensity‐weighted size distribution. Prior to the measurements, the samples were equilibrated to 25°C for 2 minutes. Each measurement had at least 10 sub‐runs under the automatic mode of the software. The particle size, PDI and zeta potential data point represent the mean ± SD of three measurements. After mixing HK peptides (4 μg) and mRNA (1 μg) in 100 μl of defined media (Opti‐MEM, water, or DMEM/8% FBS) for 30 minutes, 100 μl of additional defined media was added to the polyplex solution (total volume 200 μl) to measure the size and PDI. To determine the zeta potential, 800 μl more of the media was added (total volume 1000 μl), mixed gently and then added to the disposable zeta cell.

The test system of another series is cytokines. To be noted: in vitro and in vivo; cited from earlier work.

Consider “R = KHHHKHHHKHHHHKHHHK [H3K(+H)4b, four‐branched analogue of H3K4b with one extra histidine in the second ‐HHHK‐ motif]”, for which the “Carrier of siRNA” value in series [1] is “effective carriers of siRNA”. Besides, the “Stability of mRNA polyplex to trypsin” value with trypsin is “reduced stability to trypsin at the 1:2 and 1:1 ratios compared to the H3k(+H)4b polyplex”. Further, in the series with MDA‐MB‐231 cells [2], the “% Viability” value is 96.3%. Moreover, in the series on MDA‐MB‐231 cells [3], the “mRNA carrier effectiveness compared with DOTAP liposomes” value is listed as “significantly better carriers of mRNA than the DOTAP liposomes”. The “Uptake of Cy5-labelled mRNA polyplexes into cells” value in the series with MDA‐MB‐231 cells [4] is given as “imported into the cells more than H3K4b polyplexes”. The “Zeta potential of polyplex” value in series [5] (DMEM/8%FBS) is on record as −12.7 ± 1.04 mV; in series [5] (Opti‐MEM) it was 2.92 ± 1.83 mV; in series [5] (Water) it was 20.77 ± 1.12 mV. The Size of polyplex in series [5] (DMEM/8%FBS) is recorded as 289 ± 38.2 nm; in series [5] (Opti‐MEM), 1,004 ± 61.1 nm; in series [5] (Water), 234.9 ± 2.7 nm. Besides, the figures for the PDI of polyplex in series [5] (DMEM/8%FBS), in series [5] (Opti‐MEM) and in series [5] (Water) were 0.307, 0.362 and 0.212, respectively.
“R = KHHHKHHHKHHHKHHHK [H3K4b, four‐branched histidine‐lysine peptide with four ‐HHHK‐ motifs in each branch]”: the “Carrier of siRNA” value in series [1] is “effective carriers of siRNA”. Besides, in the series with cytokines, the “Cytokine induction by siRNA polyplex” value is “induced cytokines to a significantly greater degree in vitro and in vivo than the H3K(+H)4b‐siRNA polyplexes”. Further, the “% Viability” value in the series on MDA‐MB‐231 cells [2] is on record as 95.6%. Moreover, in series [5] (DMEM/8%FBS), the “Zeta potential of polyplex” value is −12.1 ± 2.22 mV, the Size of polyplex is listed as 578 ± 80.5 nm and the PDI of polyplex stood at 0.421. Further, in series [5] (Opti‐MEM), the “Zeta potential of polyplex” value is reported as −4.20 ± 2.78 mV, the Size of polyplex is listed as 2,030.7 ± 117.3 nm and the PDI of polyplex came to 0.466. In series [5] (Water), the “Zeta potential of polyplex” value was 16.47 ± 0.74 mV, the Size of polyplex is given as 199.9 ± 0.8 nm and the PDI of polyplex came out at 0.171.
